This note sets out measurements from ChEMBL document CHEMBL4229569, “Structure-Based Design of 1-Heteroaryl-1,3-propanediamine Derivatives as a Novel Series of CC-Chemokine Receptor 5 Antagonists” (J Med Chem, 2018).

Molecules are shown by their SMILES.

Data set [1] is described as follows: AUC in rat at 10 mg/kg, po administered as single dose. The class given is ADME, organism-based. The conditions noted are these: in vivo.
Data set [2] can be described thus: Cytotoxicity against human TZM-bl cells after 48 hrs by MTT assay. It is filed as cell-based. (Tetrazolium assays rely on reduction of a dye to a coloured formazan, in cell work by metabolically active cells.)
Data set [3] can be described thus: Cmax in Sprague-Dawley rat at 10 mg/kg, po by LC-MS/MS analysis. Further details: dose 10 mg/kg, route oral. The class given is ADME, organism-based. The conditions noted are these: in vivo.
Another data set concerns Rattus norvegicus. Briefly: Tmax in Sprague-Dawley rat at 10 mg/kg, po by LC-MS/MS analysis. It is filed as ADME, organism-based. The conditions noted are these: in vivo.
For data set [4], the system named is Hepatocyte. Briefly: Metabolic stability in human hepatocytes assessed as compound remaining by UPLC/Q-TOF mass spectrometric analysis. The class given is ADME, cell-based.
Data set [5] relates to Hepatocyte. Briefly: Metabolic stability in dog hepatocytes assessed as compound remaining by UPLC/Q-TOF mass spectrometric analysis. The class given is ADME, cell-based, Canis lupus familiaris.
Data set [6] has as its system Hepatocyte. Description: Metabolic stability in rat hepatocytes assessed as compound remaining by UPLC/Q-TOF mass spectrometric analysis. It is filed as ADME, cell-based.
The nature of data set [7]: Cmax in dog at 2 mg/kg, po by LC-MS/MS analysis. The class given is ADME, organism-based, Canis lupus familiaris. Also on record: dose 2 mg/kg, route oral. The conditions noted are these: in vivo.
The nature of data set [8]: Tmax in dog at 2 mg/kg, po by LC-MS/MS analysis. It is filed as ADME, organism-based, Canis lupus familiaris. The conditions noted are these: in vivo.
The subject of data set [9] is Canis familiaris. Briefly: Clearance in dog at 0.5 mg/kg, iv by LC-MS/MS analysis. It is filed as ADME, organism-based, Canis lupus familiaris. The conditions noted are these: in vivo.
For data set [10], the system named is Canis familiaris. Briefly: AUC (0 to infinity) in dog at 2 mg/kg, po by LC-MS/MS analysis. The class given is ADME, organism-based, Canis lupus familiaris. Also on record: dose 2 mg/kg, route oral, time infinity. The conditions noted are these: in vivo.
The subject of data set [11] is Canis familiaris. Description: Oral bioavailability in dog at 2 mg/kg by LC-MS/MS analysis. It is filed as ADME, organism-based, Canis lupus familiaris. The conditions noted are these: in vivo.

As usually defined, the AUC is the area under the concentration-time curve, a measure of exposure. Lower therefore signals less exposure. By CC50 is commonly meant the concentration that lowers cell viability or growth by half. Read a low CC50 as harm at low concentration. The Cmax is the peak of the concentration-time curve. The term Tmax denotes the time at which the peak concentration occurs. The clearance is a measure of how efficiently the substance is removed, as volume per time. The low end stands for a low capacity for elimination, the high end for a high capacity for elimination. Take `Cc1nnc(C(C)C)n1[C@@H]1C[C@H]2CC[C@@H](C1)N2CC[C@H](NC(=O)C1CCC(F)(F)CC1)c1ccccc1` [MARAVIROC]: the AUC was 12.4 ng·h/mL in [1] and 583 ng·h/mL in the data set with Canis familiaris [10]. Further, the half-maximal cytotoxic concentration (CC50) at 48 h in data set [2] is over 200 µM. The maximum concentration (Cmax) stood at 5.5 ng/mL in data set [3] and 256 ng/mL in [7]. The time of peak concentration (Tmax) in the data set on Rattus norvegicus amounted to 120 min; in data set [8], 45 min. Moreover, the Stability with Hepatocyte [4] worked out at 33%; in the data set on Hepatocyte [5], 45%; with Hepatocyte [6], 79%. In the data set on Canis familiaris [9], the clearance amounted to 21 mL/min/kg. This compound showed a F in the data set on Canis familiaris [11] of 40%.
